We go through two compounds from ChEMBL document CHEMBL4421734, “Means and methods for treatment of early-onset parkinson''s disease” (2016).

Activity calls are given as the source filed them. No cut-off for these calls is given here.

Assay [1] has as its target 3-oxoacyl-[acyl-carrier-protein] reductase (Drosophila melanogaster) (UniProt B7Z001). Nature of the assay: Inhibition of FASN in one day old PINK1 mutant containing Drosophila melanogaster assessed as rescue of defective flight at 100 to 300 uM dosed with food incubated for 72 hrs. In kind it is organism-based.
Assay [2] deals with Fatty acid synthase (Mus musculus) (UniProt P19096). Nature of the assay: Inhibition of FASN in PINK1 (-/-) MEF assessed as rescue of mitochondrial dysfunction by measuring ATP levels by luminometry. In kind it is cell-based.
Sequence of Fatty acid synthase (Mus musculus) (P19096 whole entry): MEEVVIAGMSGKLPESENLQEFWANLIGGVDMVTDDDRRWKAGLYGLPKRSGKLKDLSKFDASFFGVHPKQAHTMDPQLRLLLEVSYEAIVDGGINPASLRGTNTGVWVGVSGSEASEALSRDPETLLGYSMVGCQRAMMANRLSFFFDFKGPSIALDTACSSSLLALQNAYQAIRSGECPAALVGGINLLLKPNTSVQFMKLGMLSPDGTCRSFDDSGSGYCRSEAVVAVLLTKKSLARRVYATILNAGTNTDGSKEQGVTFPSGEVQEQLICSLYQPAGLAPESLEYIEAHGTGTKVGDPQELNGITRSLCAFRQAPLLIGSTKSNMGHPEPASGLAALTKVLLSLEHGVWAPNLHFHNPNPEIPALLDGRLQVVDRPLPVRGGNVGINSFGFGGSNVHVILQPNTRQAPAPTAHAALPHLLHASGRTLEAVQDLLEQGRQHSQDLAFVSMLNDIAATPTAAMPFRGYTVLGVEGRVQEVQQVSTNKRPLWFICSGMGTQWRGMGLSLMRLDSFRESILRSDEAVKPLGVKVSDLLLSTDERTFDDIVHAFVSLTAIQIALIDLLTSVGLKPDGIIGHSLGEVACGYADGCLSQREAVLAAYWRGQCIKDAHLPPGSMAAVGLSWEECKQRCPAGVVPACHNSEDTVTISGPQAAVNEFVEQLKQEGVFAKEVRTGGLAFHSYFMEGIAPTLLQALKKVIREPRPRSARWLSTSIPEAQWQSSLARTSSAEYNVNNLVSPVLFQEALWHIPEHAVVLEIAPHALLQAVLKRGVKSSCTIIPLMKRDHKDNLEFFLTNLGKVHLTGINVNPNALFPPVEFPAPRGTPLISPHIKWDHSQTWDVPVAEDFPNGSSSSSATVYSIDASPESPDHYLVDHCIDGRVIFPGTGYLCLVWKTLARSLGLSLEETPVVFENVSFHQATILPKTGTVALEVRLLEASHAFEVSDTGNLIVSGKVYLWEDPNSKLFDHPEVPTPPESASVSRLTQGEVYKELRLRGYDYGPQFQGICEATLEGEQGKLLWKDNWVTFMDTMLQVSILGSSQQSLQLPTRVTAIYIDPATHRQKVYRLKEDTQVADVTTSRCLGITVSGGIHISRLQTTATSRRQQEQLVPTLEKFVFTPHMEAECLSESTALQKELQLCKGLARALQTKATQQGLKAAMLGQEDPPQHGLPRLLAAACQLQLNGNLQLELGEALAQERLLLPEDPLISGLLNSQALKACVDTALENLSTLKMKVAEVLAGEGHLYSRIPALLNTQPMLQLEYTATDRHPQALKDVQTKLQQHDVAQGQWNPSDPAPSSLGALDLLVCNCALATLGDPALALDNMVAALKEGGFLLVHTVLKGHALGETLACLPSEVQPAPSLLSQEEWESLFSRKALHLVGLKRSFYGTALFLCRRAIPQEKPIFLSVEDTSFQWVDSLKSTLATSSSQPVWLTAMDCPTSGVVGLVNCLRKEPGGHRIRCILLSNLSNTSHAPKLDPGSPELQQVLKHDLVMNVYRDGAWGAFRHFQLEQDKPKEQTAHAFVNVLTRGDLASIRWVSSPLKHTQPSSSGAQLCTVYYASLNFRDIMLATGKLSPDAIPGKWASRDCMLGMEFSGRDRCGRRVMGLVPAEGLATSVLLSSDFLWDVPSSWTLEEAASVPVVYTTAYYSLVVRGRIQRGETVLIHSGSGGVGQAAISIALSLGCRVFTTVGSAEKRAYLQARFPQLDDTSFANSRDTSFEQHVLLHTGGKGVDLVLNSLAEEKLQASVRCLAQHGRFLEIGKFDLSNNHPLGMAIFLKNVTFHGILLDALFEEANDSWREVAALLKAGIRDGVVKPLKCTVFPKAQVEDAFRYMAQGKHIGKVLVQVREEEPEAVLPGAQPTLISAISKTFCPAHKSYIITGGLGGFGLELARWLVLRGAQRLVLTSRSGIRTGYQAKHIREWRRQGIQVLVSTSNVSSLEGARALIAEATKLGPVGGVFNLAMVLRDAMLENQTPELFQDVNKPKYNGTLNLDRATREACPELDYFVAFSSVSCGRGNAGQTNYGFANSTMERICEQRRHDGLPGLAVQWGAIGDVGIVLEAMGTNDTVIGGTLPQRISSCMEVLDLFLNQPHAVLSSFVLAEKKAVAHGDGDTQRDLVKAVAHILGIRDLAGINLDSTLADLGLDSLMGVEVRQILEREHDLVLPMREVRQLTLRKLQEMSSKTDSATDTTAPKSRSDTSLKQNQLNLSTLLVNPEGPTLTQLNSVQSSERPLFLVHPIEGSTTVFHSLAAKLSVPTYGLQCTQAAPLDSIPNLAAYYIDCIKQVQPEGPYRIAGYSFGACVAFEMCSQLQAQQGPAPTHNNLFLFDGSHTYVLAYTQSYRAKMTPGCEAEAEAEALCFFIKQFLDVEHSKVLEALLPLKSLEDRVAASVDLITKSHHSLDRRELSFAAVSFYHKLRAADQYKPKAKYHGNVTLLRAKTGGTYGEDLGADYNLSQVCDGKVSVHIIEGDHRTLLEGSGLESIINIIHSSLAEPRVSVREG
Assay [3] concerns the target 3-oxoacyl-[acyl-carrier-protein] reductase (Drosophila melanogaster) (UniProt B7Z001). Kind of assay: Inhibition of FASN in one day old PINK1 mutant containing Drosophila melanogaster assessed as rescue of defective flight at 0.1 to 300 uM dosed with food incubated for 72 hrs. The assay is classed as organism-based.

Sequence of 3-oxoacyl-[acyl-carrier-protein] reductase (Drosophila melanogaster) (B7Z001 as listed by the source): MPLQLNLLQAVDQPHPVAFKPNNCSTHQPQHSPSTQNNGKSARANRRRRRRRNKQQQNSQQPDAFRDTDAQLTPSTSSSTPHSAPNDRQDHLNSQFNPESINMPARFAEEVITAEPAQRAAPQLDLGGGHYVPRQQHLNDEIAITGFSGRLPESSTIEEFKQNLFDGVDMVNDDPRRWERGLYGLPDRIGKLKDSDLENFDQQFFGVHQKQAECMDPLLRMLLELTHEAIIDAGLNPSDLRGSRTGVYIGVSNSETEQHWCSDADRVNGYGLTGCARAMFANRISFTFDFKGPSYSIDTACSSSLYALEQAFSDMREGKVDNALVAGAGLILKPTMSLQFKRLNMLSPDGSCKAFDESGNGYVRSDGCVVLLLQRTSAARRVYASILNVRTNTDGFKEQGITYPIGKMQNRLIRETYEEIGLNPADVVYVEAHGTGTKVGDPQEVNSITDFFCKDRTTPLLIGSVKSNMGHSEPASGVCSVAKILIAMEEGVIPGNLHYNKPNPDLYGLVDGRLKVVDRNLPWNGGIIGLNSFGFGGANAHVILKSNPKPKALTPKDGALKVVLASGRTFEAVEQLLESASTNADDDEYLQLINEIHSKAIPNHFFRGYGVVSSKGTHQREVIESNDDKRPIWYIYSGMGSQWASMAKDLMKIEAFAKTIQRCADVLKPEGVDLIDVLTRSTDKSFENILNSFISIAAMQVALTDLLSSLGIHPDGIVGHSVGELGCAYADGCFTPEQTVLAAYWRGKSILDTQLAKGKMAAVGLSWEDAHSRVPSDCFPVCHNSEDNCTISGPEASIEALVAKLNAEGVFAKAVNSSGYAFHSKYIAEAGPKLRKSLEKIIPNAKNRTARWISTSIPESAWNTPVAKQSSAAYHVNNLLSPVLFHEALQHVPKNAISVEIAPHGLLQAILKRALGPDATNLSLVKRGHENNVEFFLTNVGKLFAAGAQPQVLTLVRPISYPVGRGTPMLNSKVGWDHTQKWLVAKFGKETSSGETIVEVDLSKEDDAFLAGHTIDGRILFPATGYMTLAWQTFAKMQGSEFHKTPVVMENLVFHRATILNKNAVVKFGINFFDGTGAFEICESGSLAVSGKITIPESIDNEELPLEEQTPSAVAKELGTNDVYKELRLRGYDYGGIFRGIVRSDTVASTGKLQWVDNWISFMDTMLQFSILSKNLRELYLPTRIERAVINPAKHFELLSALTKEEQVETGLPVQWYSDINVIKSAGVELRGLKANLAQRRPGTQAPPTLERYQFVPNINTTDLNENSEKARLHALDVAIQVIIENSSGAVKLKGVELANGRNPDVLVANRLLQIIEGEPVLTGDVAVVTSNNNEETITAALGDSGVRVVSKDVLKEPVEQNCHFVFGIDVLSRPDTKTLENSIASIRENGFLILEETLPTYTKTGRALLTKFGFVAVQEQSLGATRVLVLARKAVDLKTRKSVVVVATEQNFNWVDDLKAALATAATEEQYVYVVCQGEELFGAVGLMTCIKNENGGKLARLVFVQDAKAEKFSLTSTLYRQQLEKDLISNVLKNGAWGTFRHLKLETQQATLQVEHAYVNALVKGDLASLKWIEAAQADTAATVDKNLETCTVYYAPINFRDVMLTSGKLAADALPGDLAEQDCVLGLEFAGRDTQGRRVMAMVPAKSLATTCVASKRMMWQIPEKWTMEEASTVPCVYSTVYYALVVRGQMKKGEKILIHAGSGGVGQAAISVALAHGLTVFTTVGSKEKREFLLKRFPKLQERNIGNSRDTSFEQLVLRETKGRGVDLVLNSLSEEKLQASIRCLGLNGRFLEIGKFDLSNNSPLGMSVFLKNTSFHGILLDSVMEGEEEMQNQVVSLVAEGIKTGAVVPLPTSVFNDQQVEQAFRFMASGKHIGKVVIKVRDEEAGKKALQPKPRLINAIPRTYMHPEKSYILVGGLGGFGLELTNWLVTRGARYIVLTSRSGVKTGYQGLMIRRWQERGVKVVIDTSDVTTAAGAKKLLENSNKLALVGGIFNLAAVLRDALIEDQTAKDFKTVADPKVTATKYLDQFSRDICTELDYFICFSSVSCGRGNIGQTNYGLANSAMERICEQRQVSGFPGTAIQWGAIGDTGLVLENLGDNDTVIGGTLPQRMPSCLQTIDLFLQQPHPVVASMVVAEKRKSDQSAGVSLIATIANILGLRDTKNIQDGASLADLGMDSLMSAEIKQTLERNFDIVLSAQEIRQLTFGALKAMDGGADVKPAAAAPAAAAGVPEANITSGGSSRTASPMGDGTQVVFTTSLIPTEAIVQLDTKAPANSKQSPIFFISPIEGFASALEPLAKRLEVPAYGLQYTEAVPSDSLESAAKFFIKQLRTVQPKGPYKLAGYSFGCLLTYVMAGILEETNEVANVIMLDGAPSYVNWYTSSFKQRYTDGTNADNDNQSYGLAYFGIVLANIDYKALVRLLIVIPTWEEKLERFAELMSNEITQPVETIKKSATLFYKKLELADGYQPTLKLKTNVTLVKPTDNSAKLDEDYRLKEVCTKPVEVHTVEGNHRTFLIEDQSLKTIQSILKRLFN

With `C/C=C/C/C=C/CCC(=O)[C@H]1O[C@H]1C(N)=O`, the inhibition result in assay [1] was “Dose-dependent effect”. Also, the inhibition result in assay [2] was “Active”.

Take `Oc1cc(Cl)ccc1Oc1ccc(Cl)cc1Cl`: the inhibition result in assay [3] was “Dose-dependent effect”.
